Test results as given in patent publication US20240182481A1 (Tango Therapeutics, Inc., priority 2021, published 2024).
pIC50: −log10 of the molar value. Where two headings read alike, the source gives them in different places.

Assays:
monoubiquitinated PCNA = experiment: AlphaLISA assay measuring monoubiquitinated PCNA in MDA-MB-436; assay type: cell-based; conditions: read-out: Alpha LISA IC50
From the text: Table 1 also indicates IC50 values for exemplary compounds in an AlphaLISA assay measuring monoubiquitinated PCNA in a BRCA1 mutant cell line (MDA-MB-436; column 7).

USP1-UAF1 = USP1-UAF1 (Homo sapiens, UniProt O94782); experiment: Ubiquitin Rhodamine assay for USP1-UAF1 activity; assay type: biochemical
Chain of USP1-UAF1 (O94782 whole entry): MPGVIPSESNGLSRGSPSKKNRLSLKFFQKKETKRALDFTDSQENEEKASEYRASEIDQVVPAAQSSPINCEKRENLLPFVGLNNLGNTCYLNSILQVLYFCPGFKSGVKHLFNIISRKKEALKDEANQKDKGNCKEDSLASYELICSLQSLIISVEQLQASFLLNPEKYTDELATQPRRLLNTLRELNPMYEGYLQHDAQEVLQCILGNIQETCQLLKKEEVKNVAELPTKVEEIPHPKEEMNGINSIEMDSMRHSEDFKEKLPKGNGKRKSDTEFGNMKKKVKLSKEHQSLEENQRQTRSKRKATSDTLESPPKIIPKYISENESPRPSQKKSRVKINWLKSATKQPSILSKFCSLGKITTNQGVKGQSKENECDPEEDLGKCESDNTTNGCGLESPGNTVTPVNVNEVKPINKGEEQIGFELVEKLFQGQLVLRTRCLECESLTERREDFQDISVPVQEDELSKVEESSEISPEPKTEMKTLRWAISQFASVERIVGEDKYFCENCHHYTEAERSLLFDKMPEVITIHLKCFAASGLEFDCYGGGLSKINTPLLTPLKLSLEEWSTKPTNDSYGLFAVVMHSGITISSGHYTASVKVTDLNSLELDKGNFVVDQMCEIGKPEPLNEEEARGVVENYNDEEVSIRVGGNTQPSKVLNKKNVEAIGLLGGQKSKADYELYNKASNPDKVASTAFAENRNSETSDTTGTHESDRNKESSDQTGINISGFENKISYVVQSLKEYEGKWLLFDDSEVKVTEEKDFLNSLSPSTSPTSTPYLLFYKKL
Chain of USP1-UAF1 (Q8TAF3 whole entry partner): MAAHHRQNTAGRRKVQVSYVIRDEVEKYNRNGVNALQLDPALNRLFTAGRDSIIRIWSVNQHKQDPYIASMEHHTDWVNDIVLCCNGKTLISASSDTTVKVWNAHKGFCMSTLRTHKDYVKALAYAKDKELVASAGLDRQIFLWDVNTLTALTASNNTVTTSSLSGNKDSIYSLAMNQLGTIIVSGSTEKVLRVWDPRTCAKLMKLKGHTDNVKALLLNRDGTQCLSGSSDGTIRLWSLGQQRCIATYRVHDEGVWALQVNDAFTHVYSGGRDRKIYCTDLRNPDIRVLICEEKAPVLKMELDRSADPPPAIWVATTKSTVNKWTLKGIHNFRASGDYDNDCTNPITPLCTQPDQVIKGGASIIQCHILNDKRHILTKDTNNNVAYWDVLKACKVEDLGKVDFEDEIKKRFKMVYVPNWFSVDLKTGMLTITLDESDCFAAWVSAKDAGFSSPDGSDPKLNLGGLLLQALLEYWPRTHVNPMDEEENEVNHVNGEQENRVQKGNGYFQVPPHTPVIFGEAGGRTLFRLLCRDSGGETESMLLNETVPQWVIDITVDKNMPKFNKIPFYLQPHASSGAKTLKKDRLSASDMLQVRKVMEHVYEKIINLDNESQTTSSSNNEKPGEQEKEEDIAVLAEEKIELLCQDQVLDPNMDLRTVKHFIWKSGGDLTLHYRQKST
Experimental: Certain compounds of the disclosure were assessed for USP1-UAF1 activity in a Ubiquitin Rhodamine assay as described in Example 135.

[1] = test system: MDA-MB-436 (BRCA1 mutant) cell line; experiment: Viability assay in BRCA1 mutant cell line MDA-MB-436; assay type: cell-based; conditions: BRCA1 mutant MDA-MB-436, read-out: MDA-MB-436 rel IC50
From the text: (§1) Table 1 also indicates IC50 values in a viability assay for a non-isogenic pair of BRCA1 mutant (column 5—MDA-MB-436) and BRCA1 WT (column 6—HCC1954) cell lines. These values indicate the effect of treatment with compound on cell survival.

[2] = test system: HCC1954 (BRCA1 WT) cell line; experiment: Viability assay in BRCA1 WT cell line HCC1954; assay type: cell-based; conditions: read-out: HCC 1954 IC50 rel IC50
From the text: as §1

[3] = Homo sapiens, MDA-MB-436, viability

pIC50 (monoubiquitinated PCNA; Homo sapiens) | pIC50 (USP1-UAF1) | pIC50 [1, 3] | pIC50 ([2]; Homo sapiens) | pIC50 (monoubiquitinated PCNA) | pIC50 ([1]; viability) | pIC50 [2] | SMILES
> 7.00 | 7.00 to 7.52 | > 7.00 | ≤ 5.00 |  |  |  | COc1ncnc(C2CC2)c1-c1ncc2nn(S(C)(=O)=O)c(Cc3ccc(-c4nc(C(F)(F)F)cn4C)cc3)c2n1 [Compound 164, 5-(4-cyclopropyl-6-methoxy-pyrimidin-5-yl)-2-methylsulfonyl-3-[[4-[1-methyl-4-(trifluoromethyl)imidazol-2-yl]phenyl]methyl]pyrazolo[4,3-d]pyrimidine]
> 7.00 | > 7.52 | > 7.00 | ≤ 5.00 |  |  |  | COc1ncnc(C2CC2)c1-c1ncc2[nH]nc(Cc3cc(F)c(-c4nc(C(F)(F)F)cn4C)c(F)c3)c2n1 [Compound 171, 5-(4-cyclopropyl-6-methoxy-pyrimidin-5-yl)-3-[[3,5-difluoro-4-[1-methyl-4-(trifluoromethyl)imidazol-2-yl]phenyl]methyl]-1H-pyrazolo[4,3-d]pyrimidine]
6.60 to 7.00 | > 7.52 | > 7.00 | ≤ 5.00 |  |  |  | COc1ncnc(C2CC2)c1-c1ncc2c(n1)c(Cc1ccc(-c3nc(C(F)(F)F)cn3C)cc1)cn2S(C)(=O)=O [Compound 146, 2-(4-cyclopropyl-6-methoxy-pyrimidin-5-yl)-5-methylsulfonyl-7-[[4-[1-methyl-4-(trifluoromethyl)imidazol-2-yl]phenyl]methyl]pyrrolo[3,2-d]pyrimidine]
 | > 7.52 |  |  | > 7.00 | > 7.00 | ≤ 5.00 | Cn1cc(C(F)(F)F)nc1-c1ccc(C(O)c2c[nH]c3cnc(-c4c(OC(F)F)ncnc4C4CC4)nc23)cc1 (single isomer, unassigned) [Compound 141]
> 7.00 | > 7.52 | > 7.00 | ≤ 5.00 |  |  |  | COc1ncnc(C2CC2)c1-c1nc(C)c2[nH]nc(Cc3ccc(-c4nc(C(F)(F)F)cn4C)cc3)c2n1 [Compound 115, 5-(4-cyclopropyl-6-methoxypyrimidin-5-yl)-7-methyl-3-(4-(1-methyl-4-(trifluoromethyl)-1H-imidazol-2-yl)benzyl)-1H-pyrazolo[4,3-d]pyrimidine]
> 7.00 | > 7.52 | > 7.00 | 5.00 to 6.60 |  |  |  | Cn1cc(C(F)(F)F)nc1-c1ccc(Cc2c[nH]c3cnc(-c4c(Cl)ccnc4C4CC4)nc23)cc1 [Compound 150, 2-(4-chloro-2-cyclopropylpyridin-3-yl)-7-(4-(1-methyl-4-(trifluoromethyl)-1H-imidazol-2-yl)benzyl)-5H-pyrrolo[3,2-d]pyrimidine]
6.60 to 7.00 | 7.00 to 7.52 | 6.60 to 7.00 | 5.00 to 6.60 |  |  |  | Cn1cc(C(F)(F)F)nc1-c1ccc(Cc2c(CN)[nH]c3cnc(-c4cccnc4C4CC4)nc23)cc1 [Compound 186]
> 7.00 | 7.00 to 7.52 | > 7.00 | ≤ 5.00 |  |  |  | CCn1cc(C(F)(F)F)nc1-c1ccc(Cc2c3nc(-c4c(OC)ncnc4C4CC4)ncc3nn2C)cc1 [Compound 139, 5-(4-cyclopropyl-6-methoxypyrimidin-5-yl)-3-(4-(1-ethyl-4-(trifluoromethyl)-1H-imidazol-2-yl)benzyl)-2-methyl-2H-pyrazolo[4,3-d]pyrimidine]
> 7.00 | 7.00 to 7.52 | > 7.00 | ≤ 5.00 |  |  |  | COc1ncnc(C2CC2)c1-c1ncc2c(n1)c(Cc1ccc(-c3nc(C(F)(F)F)cn3C)cc1)nn2CC(F)(F)F [Compound 190, 5-(4-cyclopropyl-6-methoxy-pyrimidin-5-yl)-3-[[4-[1-methyl-4-(trifluoromethyl)imidazol-2-yl]phenyl]methyl]-1-(2,2,2-trifluoroethyl)pyrazolo[4,3-d]pyrimidine]
6.60 to 7.00 | > 7.52 | 6.60 to 7.00 | ≤ 5.00 |  |  |  | COc1ncnc(OC)c1-c1ncc2[nH]nc(Cc3ccc(-c4nc(C(F)(F)F)cn4C)cc3)c2n1 [Compound 144]
> 7.00 | > 7.52 | > 7.00 | ≤ 5.00 |  |  |  | COc1ncnc(C2CC2)c1-c1cc2c(Cc3ccc(-c4nc(C(F)(F)F)cn4C)cc3)n[nH]c2cn1 [Compound 177, 5-(4-cyclopropyl-6-methoxypyrimidin-5-yl)-3-(4-(1-methyl-4-(trifluoromethyl)-1H-imidazol-2-yl)benzyl)-1H-pyrazolo[3,4-c]pyridine]

The remaining lines, values behind:

SMILES | pIC50 (monoubiquitinated PCNA; Homo sapiens) | pIC50 (USP1-UAF1) | pIC50 [1, 3] | pIC50 ([2]; Homo sapiens) | pIC50 (monoubiquitinated PCNA) | pIC50 ([1]; viability) | pIC50 [2]
COc1ncnc(C2CC2)c1-c1nc(F)c2[nH]cc(Cc3ccc(-c4nc(C(F)(F)F)cn4C)cc3)c2n1 [Compound 110] | 5.00 to 6.60 | > 7.52 | 6.60 to 7.00 | ≤ 5.00 |  |  | 
COc1ncnc(C2CC2)c1-c1ncc2[nH]cc(C(C)c3ccc(-c4nc(C(F)(F)F)cn4C)cc3)c2n1 (single isomer, unassigned) [Compound 89] | > 7.00 | > 7.52 | > 7.00 | 5.00 to 6.60 |  |  | 
Cn1cc(C(F)(F)F)nc1-c1ccc(Cc2c[nH]c3cnc(-c4cccnc4N4CCC4)nc23)cc1 [Compound 67, 2-[2-(azetidin-1-yl)-3-pyridyl]-7-[[4-[1-methyl-4-(trifluoromethyl)imidazol-2-yl]phenyl]methyl]-5H-pyrrolo[3,2-d]pyrimidine] | 5.00 to 6.60 | 5.00 to 7.00 | 5.00 to 6.60 | ≤ 5.00 |  |  | 
CC(C)c1ccccc1-c1ncc2[nH]nc(Cc3ccc(-c4nc(C(F)(F)F)cn4C)cc3)c2n1 [Compound 27, 5-(2-isopropylphenyl)-3-[[4-[1-methyl-4-(trifluoromethyl)imidazol-2-yl]phenyl]methyl]-1H-pyrazolo[4,3-d]pyrimidine] | > 7.00 | > 7.52 | > 7.00 | ≤ 5.00 |  |  | 
COc1ncnc(OC)c1-c1ncc2[nH]cc(Cc3ccc(-c4nc(C(F)(F)F)cn4C)cc3)c2n1 [Compound 100] | > 7.00 | 7.00 to 7.52 | 6.60 to 7.00 | ≤ 5.00 |  |  | 
COc1ncnc(C2CC2)c1-c1ncc2[nH]cc(Cc3ccc(-c4nc(C(F)(F)F)cn4C)c(C)c3)c2n1 [Compound 113] | > 7.00 | > 7.52 | > 7.00 | ≤ 5.00 |  |  | 
COc1ncnc(C2CC2)c1-c1ncc2[nH]cc(Cc3ccc(-c4nc(C(F)(F)F)cn4C4CN(C)C4)cc3)c2n1 [Compound 18, 2-(4-cyclopropyl-6-methoxypyrimidin-5-yl)-7-(4-(1-(1-methylazetidin-3-yl)-4-(trifluoromethyl)-1H-imidazol-2-yl)benzyl)-5H-pyrrolo[3,2-d]pyrimidine] | 6.60 to 7.00 | 5.00 to 7.00 | 6.60 to 7.00 | ≤ 5.00 |  |  | 
COc1ncnc(C2CC2)c1-c1ncc2[nH]nc(Cc3ccc(-c4nc(C(F)(F)F)cn4C)c(C)c3)c2n1 [Compound 95, 5-(4-cyclopropyl-6-methoxy-pyrimidin-5-yl)-3-[[3-methyl-4-[1-methyl-4-(trifluoromethyl)imidazol-2-yl]phenyl]methyl]-1H-pyrazolo[4,3-d]pyrimidine] | > 7.00 | > 7.52 | > 7.00 | ≤ 5.00 |  |  | 
CCn1cc(C(F)(F)F)nc1-c1ccc(Cc2c[nH]c3cnc(-c4c(OC)ncnc4C4CC4)nc23)cc1 [Compound 15] | 6.60 to 7.00 | > 7.52 | > 7.00 | ≤ 5.00 |  |  | 
Cn1cc(C(F)(F)F)nc1-c1ccc(Nc2c[nH]c3cnc(-c4ccccc4C4CC4)nc23)cc1 [Compound 12, 2-(2-cyclopropylphenyl)-N-[4-[1-methyl-4-(trifluoromethyl)imidazol-2-yl]phenyl]-5H-pyrrolo[3,2-d]pyrimidin-7-amine] | 5.00 to 6.60 | 5.00 to 7.00 | 5.00 to 6.60 | 5.00 to 6.60 |  |  | 
COc1ncnc(C2CC2)c1-c1ncc2[nH]cc(C3(c4ccc(-c5nc(C(F)(F)F)cn5C)cc4)CC3)c2n1 [Compound 47, 2-(4-cyclopropyl-6-methoxy-pyrimidin-5-yl)-7-[1-[4-[1-methyl-4-(trifluoromethyl)imidazol-2-yl]phenyl]cyclopropyl]-5H-pyrrolo[3,2-d]pyrimidine] | 6.60 to 7.00 | 7.00 to 7.52 | 5.00 to 6.60 | ≤ 5.00 |  |  | 
COc1ncnc(C2CC2)c1-c1ncc2c(n1)c(Cc1ccc(-c3nc(C(F)(F)F)cn3C)cc1)nn2C(C)C (single isomer, unassigned) [Compound 98, 5-(4-cyclopropyl-6-methoxy-pyrimidin-5-yl)-1-isopropyl-3-[[4-[1-methyl-4-(trifluoromethyl)imidazol-2-yl]phenyl]methyl]pyrazolo[4,3-d]pyrimidine] | > 7.00 | 7.00 to 7.52 | > 7.00 | ≤ 5.00 |  |  | 
COc1ncnc(C2CC2)c1-c1ncc2nn(C(C)C)c(Cc3ccc(-c4nc(C(F)(F)F)cn4C)cc3)c2n1 (single isomer, unassigned) [Compound 104, 5-(4-cyclopropyl-6-methoxy-pyrimidin-5-yl)-2-isopropyl-3-[[4-[1-methyl-4-(trifluoromethyl)imidazol-2-yl]phenyl]methyl]pyrazolo[4,3-d]pyrimidine] | 6.60 to 7.00 | 5.00 to 7.00 | 6.60 to 7.00 | ≤ 5.00 |  |  | 
COc1ncnc(C2CC2)c1-c1ncc2[nH]nc(Cc3ccc(-c4nc(C#N)cn4C)cc3)c2n1 [Compound 45, 2-[4-[[5-(4-cyclopropyl-6-methoxy-pyrimidin-5-yl)-1H-pyrazolo[4,3-d]pyrimidin-3-yl]methyl]phenyl]-1-methyl-imidazole-4-carbonitrile] | 5.00 to 6.60 | 5.00 to 7.00 | 5.00 to 6.60 | ≤ 5.00 |  |  | 
